Tested on: MCA-207 fibrosarcoma tumor cells
Test: Growth of MCA-207 tumors (Example 11)
Format: in vivo, C57 mice
Conditions: ganciclovir with empty liposomes (data not shown)
Description: This example describes the treatment of tumors using the method of the invention. […] The general method is set out in FIG. 8.
24 female C57 mice were seeded with 100,000 MCA-207 fibrosarcoma tumor cells (provided by S. Rosenberg, National Cancer Institute, Frederick/Bethesda, MD) by intra-dermal injection on day zero. The tumor cells had been cultivated and prepared according to standard techniques using RPMI media with 10% Fetal Bovine Serum (see for example Current Protocols in Molecular Biology). Beginning on day 5, all animals were treated with the lipid/therapeutic nucleic acid formulation listed in the chart, supra. The formulation was delivered intravenously through the tail vein. 80 μg of pINEX-TK10 DNA were injected in a total volume of 200 μL. Treatments were administered on days 5, 7, 9, 11 and 13.
Beginning on day 5, all animals were treated with ganciclovir twice daily. 1 mg (˜50 mg/kg) were injected intra-peritoneally in a total volume of 200 μL PBS. Treatments continued twice daily for 12 days (see, FIG. 9(A)). Mice were monitored for tumor growth.

Nc1nc(O)c2ncn(COC(CO)CO)c2n1 [ganciclovir]
Tumor reduction: no effect

Reference: patent US20050118253A1, “Systemic delivery of serum stable plasmid lipid particles for cancer therapy” (Protiva Biotherapeutics, Inc., priority 1998, published 2005)
